{
  "source": "patent US20070010756A1",
  "about": "(priority 2005, published 2007)",
  "origin": "cited, not measured here",
  "tested_on": "patients",
  "conditions": "in vivo",
  "data": [
    {"smiles": "CC(C)c1cccc(C(C)C)c1O", "note": "[propofol]", "values": [
      {"measurement": "BIS value at which 50 percent of the patients had lost consciousness (95 percent confidence interval)", "result": "61 (59-62)"},
      {"measurement": "Response Entropy (RE) value at which 50 percent of the patients had lost consciousness (95 percent confidence interval)", "result": "70 (68-72)"},
      {"measurement": "State Entropy (SE) value at which 50 percent of the patients had lost consciousness (95 percent confidence interval)", "result": "64 (62-66)"}
    ]}
  ]
}
